Measured values: US10172816B2, “Method of treating chronic obstructive pulmonary disease (CPD) with verproside” (YUNGJIN PHARMACEUTICAL CO., LTD, priority 2013, dated 2019)

Experiments:
[1] = target: ADBR2 (beta-2 adrenergic receptor) GPCR (Homo sapiens, UniProt P07550); test: ADBR2 GPCR-targeting cell-based assay (spot formation); conditions: 20 micromole; U2OS cells stably expressing ADBR2 GPCR
[2] = system: inflammatory immunocytes and neutrophils in BALF; test: COPD mouse model (LPS+CS, i.t.): immunocytes, neutrophils and T lymphocytes in BALF; format: in vivo, BALB/c mice; conditions: 15 mg/kg, p.o.
Method: Specific pathogen-free male BALB/c mice (about 18-20 g), aged 8 weeks, which were routinely screened serologically for relevant respiratory pathogens, were purchased from ORIENT Co. (www.orient.co.kr, Seoul, Korea) and bred allowing to access freely to feed and water in breeding room controlling the temperature of 22±2° C., and humidity of 55±15% at the light-dark cycle for 12 hours and acclimated with the experimental environment for 1 week. […] 8 weeks aged BALB/c male mice was anaesthetized with 7% chloral hydrate and 100 μl of LPS+CS mixture {LPS (100 μg/ml)+standard cigarette extract (Cigarette smoking (CS), 4 mg/ml)=1:1} was inhaled to mice (i.t.) for three weeks once a week to prepare COPD animal model. Briefly, 100 μl of LPS+CS mixture was evenly inhaled to nose and mouth of fastened mice (i.t). […] After the end of experiment, the blood, BALF, and pneumonocyte of each mice were isolated and collected to test. After blood collection, 1 ml of FBS-free/DMEM medium contained in injector was injected to the trachea of autopsied mice, and the mice was fixed with string to circulate the blood three times and isolate the cell from BALF. […] The isolated PBMCs, BAL (Bronchoalveolar lavage), and pneumocyte were adjusted to 5×10^5 cells and performed to immunofluorescence staining at 4° C. PE-anti-CD3e (553064, BD Pharmingen, USA), FITC-anti-CD8 (553031, BD Pharmingen, USA), PE-anti-CD4 (553047, BD Pharmingen, USA), PE-anti-Gr-1 (553128, BD Pharmingen, USA), and FITC-anti-neutrophil (ab55453, Abcam, UK) were added thereto, respectively, and reacted for 30 mins in ice. After the reaction, the cells were washed with phosphate buffered physiological saline solution more than three times and the cell frequency (%) of CD3^+CD4^+& CD3^+CD8^+, and Gr-1^+Neutrophil^+ was determined using by Cell Quest program (643274, BD Biosciences, USA) of the flow cytometer (FACSCalibur, Becton, Dickinson, USA) and the absolute total number in each tissue was calculated by applying total cells.

[3] = system: TNF-α; test: COPD mouse model (LPS+CS): TNF-α in BALF by ELISA; format: in vivo, BALB/c mice; conditions: 15 mg/kg, p.o.
Method: 8 weeks aged BALB/c male mice was anaesthetized with 7% chloral hydrate and 100 μl of LPS+CS mixture {LPS (100 μg/ml)+standard cigarette extract (Cigarette smoking (CS), 4 mg/ml)=1:1} was inhaled to mice (i.t.) for three weeks once a week to prepare COPD animal model. Briefly, 100 μl of LPS+CS mixture was evenly inhaled to nose and mouth of fastened mice (i.t). […] After the end of experiment, the blood, BALF, and pneumonocyte of each mice were isolated and collected to test. The level of IL-1β, IL-6, TNF-a, IL-17, MCP-1, and GRO-a (BioSource, USA) in BALF isolated from mice was determined by enzyme-linked immuno-sorbent assay. Respective antibodies against L-1β, IL-6, TNF-a, IL-17, MCP-1, and GRO-a were diluted with a coating buffer solution (291195, R&D System, USA), coated on a microwell and left alone for overnight at 4° C. Each well was washed three times with washing buffer solution and 100 μl of 10-fold diluted serum was added thereto. […] The solution was left alone for 30 mins in shadow and added with 50 μl of stop solution (DY994, R&D system, USA) to determine the absorbance using by ELISA leader at 450 nm (340PC384, Molecular Devices, USA).

[4] = system: IL-1β, IL-6, and TNF-α; test: COPD rat model (cigarette smoke): cytokine release in BALF by ELISA; format: in vivo, Sprague-Dawley rat; conditions: ATC2 and Verproside 30 mg/kg, Daxas 1 mg/kg, p.o.
Method: The exposure of cigarette smoke was performed by using a cigarette smoke generator (CH Technology Corp. USA). In a detail, 1 hour after the orally administration of test samples using by Head/nose-only exposure unit (TSE System, German) according to nose-only method, the cigarette smoke was exposed by inhalation for 3 days every hour. 8 puffs (volume 35 ml, duration 2 sec, interval 1 time/min) per one piece of standard cigarette was performed in the experiment. The tested groups were divided into five groups, i.e., (i) normal group with no treatment (normal control, NC), (ii) control group exposed with cigarette smoke (COPD), (iii) test sample group treated with Daxas (1 mg/kg, p.o) 1 hr prior to cigarette smoke exposure (DA), (iv) test sample group treated with ATC2 (30 mg/ml, p.o) 1 hr prior to cigarette smoke exposure (YPL), and (v) test sample group treated with Verproside (30 mg/ml, p.o) 1 hr prior to cigarette smoke exposure (Ver). After the end of experiment, the blood, BALF, and pneumonocyte of each rat were isolated and collected to test.
The level of IL-1β, IL-6, and TNF-a (R&D System, USA) in BALF isolated from the rat was determined by enzyme-linked immuno-sorbent assay (ELISA). The analysis of each cytokine was performed according to the manufacturer's manual, and the absorbance was determined at 450 nm by ELISA leader (340PC384, Molecular Devices, USA).

[5] = system: MMP-9; test: COPD rat model: MMP-9 activity in lung tissue (gelatin zymography); format: in vivo, Sprague-Dawley rat; conditions: ATC2 and Verproside 30 mg/kg, p.o.; level similar to Daxas group
Method: The exposure of cigarette smoke was performed by using a cigarette smoke generator (CH Technology Corp. USA). In a detail, 1 hour after the orally administration of test samples using by Head/nose-only exposure unit (TSE System, German) according to nose-only method, the cigarette smoke was exposed by inhalation for 3 days every hour. 8 puffs (volume 35 ml, duration 2 sec, interval 1 time/min) per one piece of standard cigarette was performed in the experiment. […]
The lung tissue of rat was homogenized with Tissue lysis buffer (C3228, Sigma-Aldrich, USA) treated with a protease inhibitor (11836153001, Roche, Germany) and the homogenized lung tissue was centrifuged at 12000 rpm for 10 mins to isolate the supernatant. The protein assay reagent (500-0006, Bio-Rad, USA) was used to quantification. […] The density of MMP-9 band was determined using by Chemi-doc (170-8070, Bio-Rad, USA) to determine the activity of MMP-9.

[6] = system: MMP-9 and NF-κB; test: COPD rat model: expression of proinflammatory proteins in lung tissue (Western blotting); format: in vivo, Sprague-Dawley rat; conditions: ATC2 and Verproside 30 mg/kg, Daxas 1 mg/kg, p.o.
Method: The exposure of cigarette smoke was performed by using a cigarette smoke generator (CH Technology Corp. USA). In a detail, 1 hour after the orally administration of test samples using by Head/nose-only exposure unit (TSE System, German) according to nose-only method, the cigarette smoke was exposed by inhalation for 3 days every hour. 8 puffs (volume 35 ml, duration 2 sec, interval 1 time/min) per one piece of standard cigarette was performed in the experiment. The tested groups were divided into five groups, i.e., (i) normal group with no treatment (normal control, NC), (ii) control group exposed with cigarette smoke (COPD), (iii) test sample group treated with Daxas (1 mg/kg, p.o) 1 hr prior to cigarette smoke exposure (DA), (iv) test sample group treated with ATC2 (30 mg/ml, p.o) 1 hr prior to cigarette smoke exposure (YPL), and (v) test sample group treated with Verproside (30 mg/ml, p.o) 1 hr prior to cigarette smoke exposure (Ver).
The protein obtained from homogenization was performed to electrophoresis at the dose of 30 μg/lane and transferred using by polyvinylidene difluoride (PVDF) membrane (IPVH00010, Millipore, USA).

Chain of ADBR2 (beta-2 adrenergic receptor) GPCR (P07550 whole entry): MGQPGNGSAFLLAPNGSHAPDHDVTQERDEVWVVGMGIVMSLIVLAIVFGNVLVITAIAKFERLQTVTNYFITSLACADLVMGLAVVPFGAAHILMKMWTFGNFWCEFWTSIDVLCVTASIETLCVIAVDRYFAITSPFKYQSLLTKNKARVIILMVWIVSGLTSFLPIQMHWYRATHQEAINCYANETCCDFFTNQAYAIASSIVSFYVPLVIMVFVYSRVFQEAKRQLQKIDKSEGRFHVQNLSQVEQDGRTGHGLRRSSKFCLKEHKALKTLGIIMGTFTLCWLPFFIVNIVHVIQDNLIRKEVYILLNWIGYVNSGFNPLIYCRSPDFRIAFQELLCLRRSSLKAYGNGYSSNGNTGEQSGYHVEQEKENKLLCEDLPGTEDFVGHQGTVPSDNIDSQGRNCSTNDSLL

O=C(O[C@H]1[C@@H]2C=CO[C@@H](O[C@@H]3O[C@H](CO)[C@@H](O)[C@H](O)[C@H]3O)[C@@H]2[C@@]2(CO)O[C@@H]12)c1ccc(O)c(O)c1 [verproside, 6-O-(3,4-dihydroxybenzoyl) catalpol]
spot formation [1]: did not show spot formation
number of total immunocyte in BALF compared with control group [2]: sharply reduced
reduction of number of neutrophils (Diff-Quik stained, cytospin) in BALF compared with control group [2]: more than 94.2%
reduction of total absolute cell number of CD4+ T cell in BALF compared with control group [2]: more than 32.9%
reduction of total absolute cell number of CD8+ T cell in BALF compared with control group [2]: not significantly different
reduction of total absolute cell number of Neutrophils+Gr-1+ cell in BALF compared with control group [2]: more than 93.9%
reduction of TNF-α in BALF compared with control group [3]: more than 42.2%
level of cytokines (IL-1β, IL-6, TNF-α) in BALF compared with COPD induced group [4]: significantly reduced level
activity of MMP-9 in lung tissue [5]: remarkably reduced activity
expression of proinflammatory protein (MMP-9, NF-κB) in lung tissue compared with COPD induced group [6]: significant decreased
